Measurements as given in patent US7091033B2, “Array of toxicologically relevant canine genes and uses thereof” (Phase-1 Molecular Toxicology, Inc., priority 2000, dated 2006).
Like-named read-outs stand apart in the source and are kept apart here.

Test system: canine kidney gene expression
Experiment: Canine array gene expression profile of kidney from dog dosed with erythromycin estolate
Format: in vivo
Conditions: Canis lupus familiaris, 240 h, 10 days
Procedure: For liver or kidney, about 0.15-0.20 g of tissue was weighed and placed in a 15 ml conical tube. All tissue were kept on dry ice when other samples were being weighed.
About 3.8 ml of RLT buffer was added to the tube containing the sample. The RLT buffer® from Qiagen can be prepared beforehand by adding 10 μl betamercaptoethanol to each 1.0 ml of lysis buffer needed. The tissue was homogenized using the rotor-stator homogenizer for 45 seconds. A IKA Ultra Turrax T25 homogenizer set at speed 4 with the S25N-10G dispersing element can be used. Alternatively, a Virtishear Cyclone 750W rotor/stator homogenizer (Virtis item #278077) can be used with the 7 mm microfine sawtooth shaft and generator (195 mm long with a processing range of 0.25 ml to 20 ml, item #372718). After homogenization, samples were stored on ice until all samples were homogenized. To clean the homogenizing tip between samples, the tip was first run for a few seconds in 95% ethanol and then rinsed by squirting with fresh 95% ethanol. This process was repeated with nanopure water.
The tissue lysate was centrifuged at room temperature for 10 minutes at 3700-3800 rpm in a Beckman GS-6 (or equivalent) centrifuge to remove nuclei thus reducing DNA contamination.
The supernatant of the lysate was transferred to a clean 15 ml conical tubes containing an equal volume of 70% EtOH in DEPC treated H2O, being careful not to include any of the pellet or fatty layer and mixed. About 3.8 ml of sample was added to the RNeasy spin column placed in a 15 ml centrifuge tube and centrifuged at 3000×g (3690-3710 rpm, Beckman GS-6) for 5 min. The flow-through was discarded. The remaining sample was added to the appropriate column and spun at 3000×g for 5 minutes and the flow-through was discarded.
About 4.0 ml of Buffer RW1 (Qiagen®) was added to the column and spun as before then about 2.5 ml of buffer RPE (Qiagen®) was added to column and spun at 3000×g (3690-3710 rpm, Beckman GS-6) for 2 minutes. In this example, RPE buffer was supplied as a concentrate so 4 volumes of 95% EtOH was added before use. For the midi kit, about 220 ml of 95% EtOH would be added to 55 ml of RPE. Another 2.5 ml of buffer RPE was added and spun for 5 minutes to also dry out column. The column, including the tip, should be dry for the next elution step.
For elution, the column that has the RNA bound to a clean 15 ml tube was transferred and 200 μl of RNase-free water was added to the column, allowed to sit for 1 minute, and spun for 3 minutes at 3000×g (3690-3710 rpm, Beckman GS6). This step was repeated into the same tube but with 200 μl RNase-free water.
Liver and kidney organs were isolated from a dog which was dosed with erythromycin esolate at 100 mg/kg/day for 2 or 10 days. The dog was euthanized 16 hours after the last dosage and the organs were harvested according to standard sterile procedure. RNA was isolated from the kidney and liver as detailed in Example 1. cDNA was made from the RNA and used as probes as detailed in the Examples above.

Measured: fold induction at 100 mg/kg

CCC(=O)O[C@H]1[C@H](O[C@@H]2[C@@H](C)[C@H](O[C@H]3C[C@@](C)(OC)[C@@H](O)[C@H](C)O3)[C@@H](C)C(=O)O[C@H](CC)[C@@](C)(O)[C@H](O)[C@@H](C)C(=O)[C@H](C)C[C@@]2(C)O)O[C@H](C)C[C@@H]1N(C)C [erythromycin estolate]
1: read-out: Angiopoietin-related protein 3 (ANGPTL3) fold induction | read-out: Caveolin-1 fold induction | read-out: Cytochrome c oxidase subunit VIIaL fold induction | read-out: Gadd45 fold induction | read-out: Phase-1 CCT-13 fold induction | read-out: Phase-1 CCT-14 fold induction | read-out: Phase-1 CCT-16 fold induction | read-out: Phase-1 CCT-17 fold induction | read-out: Phase-1 CCT-36 fold induction | read-out: Phase-1 CCT-49 fold induction | read-out: Phase-1 CCT-53 fold induction | read-out: Phase-1 CCT-59 fold induction | read-out: Phase-1 CCT-76 fold induction | read-out: Phase-1 CCT-82 fold induction | read-out: Phase-1 CCT-93 fold induction
1.5: read-out: Phase-1 CCT-58 fold induction
1.4: read-out: Glucose-regulated protein 94 #1 fold induction | read-out: Phase-1 CCT-27 fold induction | read-out: Rab7 fold induction | read-out: c-erb B-2 fold induction | read-out: p53 fold induction
1.1: read-out: Beta-glucuronidase fold induction | read-out: Cubilin fold induction | read-out: Decorin fold induction | read-out: FGFR2 fold induction | read-out: GRP94 fold induction | read-out: N-cadherin fold induction | read-out: Phase-1 CCT-4 fold induction | read-out: Phase-1 CCT-8 fold induction | read-out: Phase-1 CCT-12 fold induction | read-out: Phase-1 CCT-31 fold induction | read-out: Phase-1 CCT-32 fold induction | read-out: Phase-1 CCT-33 fold induction | read-out: Phase-1 CCT-34 fold induction | read-out: Phase-1 CCT-42 fold induction | read-out: Phase-1 CCT-50 fold induction | read-out: Phase-1 CCT-52 fold induction | read-out: Phase-1 CCT-55 fold induction | read-out: Phase-1 CCT-56 fold induction | read-out: Phase-1 CCT-60 fold induction | read-out: Phase-1 CCT-62 fold induction | read-out: Phase-1 CCT-65 fold induction | read-out: Phase-1 CCT-66 fold induction | read-out: Phase-1 CCT-73 fold induction | read-out: Phase-1 CCT-84 fold induction | read-out: Phase-1 CCT-89 fold induction | read-out: Phase-1 CCT-91 fold induction | read-out: Proliferating cell nuclear antigen gene fold induction | read-out: Rab5 fold induction | read-out: Superoxide dismutase Mn fold induction | read-out: TFCOUP-related (probable steroid hormone receptor) fold induction | read-out: TPRD fold induction
1.3: read-out: Phase-1 CCT-30 fold induction
1.2: read-out: BRCA1 fold induction | read-out: Catalase fold induction | read-out: Phase-1 CCT-18 fold induction | read-out: Phase-1 CCT-19 fold induction | read-out: Phase-1 CCT-40 fold induction | read-out: Phase-1 CCT-41 fold induction | read-out: Phase-1 CCT-43 fold induction | read-out: Phase-1 CCT-51 fold induction | read-out: Phase-1 CCT-87 fold induction | read-out: Phase-1 CCT-88 fold induction | read-out: Prostaglandin D synthase fold induction | read-out: Rab2 fold induction | read-out: UV excision repair protein RAD 23 (XP-C) fold induction
1.6: read-out: Alkaline phosphatase fold induction | read-out: Caveolin-2 fold induction | iv, read-out: ZAP36/annexin IV fold induction
